“Also recorded” adds a separate entry of the source. Peptide text beside a SMILES is read from it. * marks the point of attachment. Stearoyl = CCCCCCCCCCCCCCCCCC(=O)*
Key:
[1] = system: influenza virus A/PR/8/34 (H1N1); experiment: Plaque assay on MDCK cells, inhibition of influenza virus infection (H1N1); type: cell-based, influenza type A virus; conditions: for IC50: H1N1, plaque assay on MDCK cells; for anti-influenza virus activity in vitro: MDCK plaque assay
Description: (§1) Inhibition of influenza virus infection was determined by a plaque assay on MDCK cells. The MDCK cells in 6-well plates were incubated with 0.2 mL of influenza virus A/PR/8/34 solutions (100 to 200 pfu; pfu denotes plaque-forming units; subtype H1N1) or influenza virus A/Victria/1/75 solutions (100-200 pfu; subtype H3N2) each containing C18-D1, S2 (H-ARLPRTMVHPKPAQP-NH2), C18-S2 (stearoyl-ARLPRTMVHPKPAQP-NH2), or D1 (H-GLAMAPSVGHVRQHG-NH2). After incubation at 37° C. under 5% CO2 for 30 minutes, the supernatant was removed, and the cells were washed with PBS. 2 mL (per well) of 2×MEM+BSA containing 0.6% agarose, 0.01% of O-diethylaminoethyl cellulose dextran, 0.1% NaHCO3, and 0.01 μg/mL of acetyl trypsin was added, and the cells were incubated for two days. Viable cells were stained with a crystal violet solution (1 mg/mL in 20% ethanol), and the number of plaques was counted. The maximum infection activity (100%) was defined as the number of plaques in the case of the absence of C18-D1. The IC50 value (50% inhibitory concentration) of C18-D1 was obtained from the plot between log [f/(1−f)] and log [C18-D1], wherein f is the percent infection activity. The IC50 values of S2, C18-S2, and D1 were calculated in a similar manner.

[2] = system: influenza virus (H1N1); set-up: species or system mice; conditions: mouse
[3] = Critical micelle concentration by NPN fluorescence in PBS; type: physicochemical; conditions: PBS (pH 7.5), 1 μM NPN
Description: The critical micelle concentration (CMC) of the purified C18-D1 was determined in the following manner. PBS (pH 7.5) containing 1 μM of N-phenyl-1-naphthylamine (hereinafter abbreviated as “NPN”) was prepared. A C18-D1 peptide stock solution (1 mM) was serially diluted to final concentrations of […], 10, and 30 μM. These solutions were excited by a wavelength of 350 nm, and the fluorescence intensity (FI) at 450 nm was measured. The difference in FI between each diluted peptide solution and PBS alone was plotted as the ordinate, and the peptide solutions were plotted as the abscissa. The concentration at the intersection of the high concentration curve and the low concentration curve was determined. The critical micelle concentration (CMC) of the intersection was 1.3 μM.

[4] = system: influenza virus A/Victria/1/75 (H3N2); experiment: Plaque assay on MDCK cells, inhibition of influenza virus infection (H3N2); type: cell-based, influenza type A virus
Description: as §1

[5] = biological target: hemagglutinin of influenza type A virus A/PR/8/34 (H1N1) (influenza A virus A/PR/8/34 (H1N1)) (UniProt P03452); experiment: cell-based or functional assay
[6] = biological target: hemagglutinin of influenza type A virus A/Victria/1/75 (H3N2) (influenza A virus A/Victria/1/75 (H3N2)); experiment: cell-based or functional assay

In the case of `CCCCCCCCCCCCCCCCCC(=O)NCC(=O)N[C@@H](CC(C)C)C(=O)N[C@@H](C)C(=O)N[C@@H](CCSC)C(=O)N[C@@H](C)C(=O)N1CCC[C@H]1C(=O)N[C@@H](CO)C(=O)N[C@H](C(=O)NCC(=O)N[C@@H](Cc1c[nH]cn1)C(=O)N[C@H](C(=O)N[C@@H](CCCNC(=N)N)C(=O)N[C@@H](CCC(N)=O)C(=O)N[C@@H](Cc1c[nH]cn1)C(=O)NCC(N)=O)C(C)C)C(C)C` [C18-D1, (stearoyl)-Gly Leu Ala Met Ala Pro Ser Val Gly His Val Arg Gln His Gly-NH2] (Stearoyl-GLAMAPSVGHVRQHG-NH2), the IC50 [1] is reported as 11 µM, the “anti-influenza virus activity in vitro” value [1] is reported as “inhibited” and the “anti-influenza virus activity in vitro” value ([1]; listed as 018-D1) is reported as “excellent anti-influenza virus activity”. For the same molecule, the mice survived ([2]; in vivo) was no less than 80%, the “critical micelle concentration (CMC)” value [3] was 1.3 µM and the IC50 ([4]; H3N2, plaque assay on MDCK cells) was 7.5 µM. The “infection of MDCK cells with H3N2” value ([4]; in vitro, MDCK plaque assay) was “inhibited”.

For `CCCCCCCCCCCCCCCCCC(=O)N[C@@H](C)C(=O)N[C@@H](CCCNC(=N)N)C(=O)N[C@@H](CC(C)C)C(=O)N1CCC[C@H]1C(=O)N[C@@H](CCCNC(=N)N)C(=O)N[C@H](C(=O)N[C@@H](CCSC)C(=O)N[C@H](C(=O)N[C@@H](Cc1c[nH]cn1)C(=O)N1CCC[C@H]1C(=O)N[C@@H](CCCCN)C(=O)N1CCC[C@H]1C(=O)N[C@@H](C)C(=O)N[C@@H](CCC(N)=O)C(=O)N1CCC[C@H]1C(N)=O)C(C)C)[C@@H](C)O` [C18-S2, stearoyl ARLPRTMVHPKPAQP-NH2] (Stearoyl-ARLPRTMVHPKPAQP-NH2), the IC50 [1] was 10 µM, the “anti-influenza virus activity in vitro” value [1] was “potent anti-influenza virus effect in vitro; also recorded: excellent anti-influenza virus activity” and the “in vivo effect on influenza virus infection” value [2] was “ineffective in vivo; also recorded: caused early mortality”.

“H-ARLPRTMVHPKPAQP-NH2 [S2-NH2, H-ARLPRTMVHPKPAQP-NH2]” gave an IC50 [1] greater than 100 µM.

“H-GLAMAPSVGHVRQHG-NH2 [D1-NH2, H-GLAMAPSVGHVRQHG-NH2]” showed an IC50 [1] greater than 100 µM.

Stearoyl-GLAMAPSVGHVRQHG-NH2 [C18-D1 (stearoyl-Gly Leu Ala Met Ala Pro Ser Val Gly His Val Arg Gln His Gly-NH2), as self-assembly] showed an IC50 (plaque assay on MDCK cells, inhibition of influenza virus infection) [5] of 11 µM and an IC50 (plaque assay on MDCK cells, inhibition of influenza virus infection) [6] of 7.5 µM.
